Data taken from US11457627B2, “Plant activator” (IBIDEN CO., LTD., priority 2017, dated 2022).

Legend:
PDF1.2 gene = assay: Evaluation of the resistance gene expression (real-time PCR), PDF1.2; format: in vivo, Arabidopsis thaliana; details: 0.012% in 0.15% potassium bicarbonate (FIG. 1) or 0.15% dipotassium hydrogenphosphate (FIG. 2) aqueous solution, watering of roots, RNA 24 hours after treatment
Experimental: (§1) As Example 1, 0.15% potassium bicarbonate aqueous solution containing 0.012% of 13-oxo-9,11-octadecadienoic acid was prepared. (9Z,11E)-13-oxo-9,11-octadecadienoic acid (13-oxoODA, Cayman Chemical Company, INC.) was used as a 13-oxo-9,11-octadecadienoic acid. […]
(§2) Each of the aqueous solutions obtained from Examples 1 and 2 was applied using the watering to treat only the roots (underground part) of Arabidopsis thaliana plants grown in the soil. The total RNA was isolated 24 hours after treatment from each Arabidopsis thaliana plant treated with each of the aqueous solutions and from the untreated Arabidopsis thaliana plant as a control, and the cDNA was synthesized from the isolated total RNA, and then the expression levels of resistance genes, PR1, PR2 and PDF1.2 were analyzed by real-time PCR. […]

[1] = test system: resistance genes, PR1, PR2 and PDF1.2; assay: Resistance-inducing effect (expression of resistance genes overall); format: in vivo, Arabidopsis thaliana; details: used instead of the oxo fatty acid
Experimental: As Example 1, 0.15% potassium bicarbonate aqueous solution containing 0.012% of 13-oxo-9,11-octadecadienoic acid was prepared. (9Z,11E)-13-oxo-9,11-octadecadienoic acid (13-oxoODA, Cayman Chemical Company, INC.) was used as a 13-oxo-9,11-octadecadienoic acid. As Comparative Examples, 0.15% potassium bicarbonate aqueous solution containing 0.012% of a fatty acid analog, which is selected from 13-HPODE ((9Z,11E)-13-hydroperoxy-9,11-octadecadienoic acid, Cayman Chemical Company, INC.), 9-HPODE ((10Z,12E)-9-hydroperoxy-10,12-octadecadienoic acid, Cayman Chemical Company, INC.), 9-HPOTE ((10E,12Z,15Z)-9-hydroperoxy-10,12,15-octadecatrienoic acid, Cayman Chemical Company, INC.), 9-HOTE ((10E,12Z,15Z)-9-hydroxy-10,12,15-octadecatrienoic acid, Cayman Chemical Company, INC.), 13-HPOTE ((9Z, 11E, 15Z)-13-hydroperoxy-9,11,15-octadecatrienoic acid, Cayman Chemical Company, INC.), 13-HOTE ((9Z, 11E, 15Z)-13-hydroxy-9,11,15-octadecatrienoic acid, Cayman Chemical Company, INC.) and 12-OPDA (12-oxo-phytodienoic acid, Cayman Chemical Company, INC.), and 0.15% potassium bicarbonate aqueous solution containing 0.012% of an α-ketol fatty acid were prepared. An aqueous solution of α-ketol fatty acid was prepared according to the preparation method described below.
As Example 2, 0.15% dipotassium hydrogenphosphate aqueous solution containing 0.012% of 13-oxo-9,11-octadecadienoic acid was prepared. (9Z,11E)-13-oxo-9,11-octadecadienoic acid (13-oxoODA, Cayman Chemical Company, INC.) was used as a 13-oxo-9,11-octadecadienoic acid. […]
as §2

PR1 gene = assay: Evaluation of the resistance gene expression (real-time PCR), PR1; format: in vivo, Arabidopsis thaliana; details: 0.012% in 0.15% potassium bicarbonate (FIG. 1) or 0.15% dipotassium hydrogenphosphate (FIG. 2) aqueous solution, watering of roots, RNA 24 hours after treatment
Experimental: as §1, §2

PR2 gene = assay: Evaluation of the resistance gene expression (real-time PCR), PR2; format: in vivo, Arabidopsis thaliana; details: 0.012% in 0.15% potassium bicarbonate (FIG. 1) or 0.15% dipotassium hydrogenphosphate (FIG. 2) aqueous solution, watering of roots, RNA 24 hours after treatment
Experimental: as §1, §2

[2] = target: T1, PPARα (peroxisome proliferator-activated receptor α) (Homo sapiens, UniProt Q07869); details: known from prior art; cited from earlier work
T1 sequence (Q07869 1-468): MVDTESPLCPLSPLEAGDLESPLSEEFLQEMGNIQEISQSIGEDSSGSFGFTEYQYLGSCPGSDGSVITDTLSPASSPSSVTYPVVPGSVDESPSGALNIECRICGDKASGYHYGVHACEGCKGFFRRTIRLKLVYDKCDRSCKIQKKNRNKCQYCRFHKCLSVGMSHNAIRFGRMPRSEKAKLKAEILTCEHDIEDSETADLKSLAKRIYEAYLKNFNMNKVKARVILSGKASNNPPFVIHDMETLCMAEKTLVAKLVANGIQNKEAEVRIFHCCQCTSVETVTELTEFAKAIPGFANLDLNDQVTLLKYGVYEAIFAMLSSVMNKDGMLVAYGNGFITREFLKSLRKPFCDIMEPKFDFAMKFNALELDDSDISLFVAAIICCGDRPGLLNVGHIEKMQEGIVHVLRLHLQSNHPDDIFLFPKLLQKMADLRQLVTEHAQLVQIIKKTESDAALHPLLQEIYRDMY

Compound | resistance-inducing effect (effect on the expression of resistance-inducing traits) [1] | other results
CC/C=C\C[C@@H]1C(=O)C=C[C@@H]1CCCCCCCC(=O)O [12-OPDA, 12-oxo-phytodienoic acid] | – | expression level of resistance gene PDF1.2 (PDF1.2 gene): induced the expression
CC/C=C\CC(/C=C/C=C\CCCCCCCC(=O)O)OO (centres unmarked) [13-HPOTE, (9Z, 11E, 15Z)-13-hydroperoxy-9,11,15-octadecatrienoic acid] | does not provide any resistance-inducing effect | –
CCCCCC(=O)/C=C/C=C\CCCCCCCC(=O)O [13-oxoODA, (9Z,11E)-13-oxo-9,11-octadecadienoic acid] | – | expression level of resistance gene PR1 (PR1 gene): significantly higher expressions; expression level of resistance gene PR2 (PR2 gene): significantly higher expressions; agonist activity to activate transcription factor PPARα [2]: strong agonist activity
hydroperoxy octadecatrienoic acid [HPOTE] | is not obtained | –
hydroperoxyoctadecadienoic acid [HPODE] | is not obtained | –
hydroxy octadecatrienoic acid [HOTE] | is not obtained | –
